Data published in the supplement of paper PMC10307832.

Tests used:
Test in all cases: relative viability (nuclei count vs DMSO), 5 days (fraction); higher = more cells survive
Bosutinib + Lapatinib = compound: COc1cc(Nc2c(C#N)cnc3cc(OCCCN4CCN(C)CC4)c(OC)cc23)c(Cl)cc1Cl [Bosutinib] + CS(=O)(=O)CCNCc1ccc(-c2ccc3ncnc(Nc4ccc(OCc5cccc(F)c5)c(Cl)c4)c3c2)o1 [Lapatinib] (partner 2 µM)
Summary of the method: (§1)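 One day after seeding in 1536-well plates, lung cancer cell lines were dosed by pin tool. Dosing was either single-drug or a fixed anchor-drug dose plus five library-drug doses (not always all listed) in √10 steps. After 5 days, nuclei were stained in one fix-and-stain step and counted on 4× images, and relative viability is the nuclei count of treated wells over that of vehicle wells, given as the median of duplicate plates.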

Bosutinib + Palbociclib = compound: COc1cc(Nc2c(C#N)cnc3cc(OCCCN4CCN(C)CC4)c(OC)cc23)c(Cl)cc1Cl [Bosutinib] + CC(=O)c1c(C)c2cnc(Nc3ccc(N4CCNCC4)cn3)nc2n(C2CCCC2)c1=O [Palbociclib] (partner 0.5 µM)
Summary of the method: as §1

Bosutinib + Phenformin = compound: COc1cc(Nc2c(C#N)cnc3cc(OCCCN4CCN(C)CC4)c(OC)cc23)c(Cl)cc1Cl [Bosutinib] + N=C(N)NC(=N)NCCc1ccccc1 [Phenformin] (partner 250 µM)
Summary of the method: as §1

Bosutinib + Olaparib = compound: COc1cc(Nc2c(C#N)cnc3cc(OCCCN4CCN(C)CC4)c(OC)cc23)c(Cl)cc1Cl [Bosutinib] + O=C(c1cc(Cc2n[nH]c(=O)c3ccccc23)ccc1F)N1CCN(C(=O)C2CC2)CC1 [Olaparib] (partner 8 µM)
Summary of the method: as §1

Bosutinib + Pemetrexed = compound: COc1cc(Nc2c(C#N)cnc3cc(OCCCN4CCN(C)CC4)c(OC)cc23)c(Cl)cc1Cl [Bosutinib] + Nc1nc2[nH]cc(CCc3ccc(C(=O)N[C@@H](CCC(=O)O)C(=O)O)cc3)c2c(=O)[nH]1 [Pemetrexed] (partner 0.2 µM)
Summary of the method: as §1

Row | Cell Line | relative viability (Bosutinib + Lapatinib; first compound 0.01 µM) | relative viability (Bosutinib + Lapatinib; first compound 0.03162 µM) | relative viability (Bosutinib + Lapatinib; first compound 0.1 µM) | relative viability (Bosutinib + Lapatinib; first compound 1 µM) | relative viability (Bosutinib + Palbociclib; first compound 0.01 µM) | relative viability (Bosutinib + Palbociclib; first compound 0.03162 µM) | relative viability (Bosutinib + Palbociclib; first compound 0.1 µM) | relative viability (Bosutinib + Palbociclib; first compound 1 µM) | relative viability (Bosutinib + Phenformin; first compound 0.01 µM) | relative viability (Bosutinib + Phenformin; first compound 0.03162 µM) | relative viability (Bosutinib + Phenformin; first compound 0.1 µM) | relative viability (Bosutinib + Phenformin; first compound 1 µM) | relative viability (Bosutinib + Olaparib; first compound 0.01 µM) | relative viability (Bosutinib + Olaparib; first compound 0.03162 µM) | relative viability (Bosutinib + Olaparib; first compound 0.1 µM) | relative viability (Bosutinib + Olaparib; first compound 1 µM) | relative viability (Bosutinib + Pemetrexed; first compound 0.01 µM) | relative viability (Bosutinib + Pemetrexed; first compound 0.03162 µM) | relative viability (Bosutinib + Pemetrexed; first compound 0.1 µM) | relative viability (Bosutinib + Pemetrexed; first compound 1 µM)
1 | NCI-H1666 | 0.705 | 0.592 | 0.656 | 0.757 | 0.663 | 0.664 | 0.634 | 0.674 | 0.536 | 0.545 | 0.552 | 0.597 | 0.713 | 0.701 | 0.756 | 0.794 | 0.827 | 0.888 | 0.833 | 0.912
2 | NCI-H1734 | 1.17 | 1.07 | 0.977 | 1.06 | 0.334 | 0.367 | 0.365 | 0.299 | 0.455 | 0.382 | 0.375 | 0.312 | 0.629 | 0.62 | 0.584 | 0.488 | 0.401 | 0.392 | 0.445 | 0.377
3 | NCI-H1755 | 1.03 | 1.11 | 1.06 | 0.915 | 0.435 | 0.456 | 0.433 | 0.469 | 0.635 | 0.682 | 0.659 | 0.588 | 0.874 | 0.998 | 0.861 | 0.885 | 0.405 | 0.488 | 0.468 | 0.45
4 | NCI-H1792 | 0.892 | 0.866 | 0.918 | 0.866 | 0.686 | 0.588 | 0.724 | 0.728 | 0.256 | 0.254 | 0.327 | 0.251 | 0.525 | 0.312 | 0.548 | 0.273 | 0.902 | 0.792 | 0.891 | 0.764
5 | NCI-H1793 | 0.864 | 0.839 | 0.438 | 0.497 | 0.272 | 0.311 | 0.326 | 0.266 | 0.431 | 0.387 | 0.364 | 0.242 | 0.815 | 0.804 | 0.755 | 0.539 | 0.86 | 0.792 | 0.829 | 0.639
6 | NCI-H1915 | 0.919 | 0.965 | 0.991 | 1.06 | 0.521 | 0.513 | 0.544 | 0.56 | 0.365 | 0.365 | 0.382 | 0.348 | 0.259 | 0.256 | 0.258 | 0.26 | 0.461 | 0.504 | 0.533 | 0.46
7 | NCI-H1944 | 0.834 | 0.803 | 0.865 | 0.736 | 0.363 | 0.362 | 0.373 | 0.298 | 0.203 | 0.193 | 0.202 | 0.186 | 0.411 | 0.384 | 0.417 | 0.433 | 0.706 | 0.624 | 0.555 | 0.601
8 | NCI-H1975 | 0.907 | 0.842 | 0.839 | 0.712 | 0.572 | 0.638 | 0.625 | 0.516 | 0.401 | 0.447 | 0.437 | 0.403 | 0.71 | 0.784 | 0.794 | 0.56 | 0.287 | 0.289 | 0.292 | 0.281
9 | NCI-H1993 | 0.814 | 0.85 | 0.947 | 0.835 | 0.67 | 0.783 | 0.718 | 0.619 | 0.513 | 0.511 | 0.492 | 0.59 | 0.988 | 0.996 | 1.04 | 1.01 | 0.506 | 0.663 | 0.611 | 0.686
10 | NCI-H2009 | 0.905 | 1.02 | 1.05 | 0.716 | 0.246 | 0.302 | 0.195 | 0.147 | 0.53 | 0.49 | 0.423 | 0.346 | 0.708 | 0.709 | 0.696 | 0.575 | 0.944 | 1.06 | 1.17 | 0.946
11 | NCI-H2023 | 0.967 | 0.819 | 0.787 | 0.793 | 0.373 | 0.368 | 0.387 | 0.297 | 0.415 | 0.4 | 0.376 | 0.295 | 0.493 | 0.427 | 0.461 | 0.423 | 0.218 | 0.263 | 0.23 | 0.223
12 | NCI-H2085 | 0.749 | 0.747 | 0.813 | 0.744 | 0.465 | 0.442 | 0.469 | 0.517 | 0.825 | 0.705 | 0.652 | 0.515 | 0.717 | 0.72 | 0.709 | 0.89 | 0.869 | 0.863 | 0.87 | 0.736
13 | NCI-H2087 | 0.956 | 1.07 | 1.1 | 1.09 | 0.247 | 0.263 | 0.218 | 0.276 | 0.563 | 0.43 | 0.411 | 0.457 | 0.663 | 0.599 | 0.749 | 0.649 | 0.705 | 0.626 | 0.741 | 0.631
14 | NCI-H2126 | 0.742 | 0.718 | 0.724 | 0.701 | 0.324 | 0.322 | 0.351 | 0.359 | 0.519 | 0.567 | 0.544 | 0.568 | 0.892 | 0.885 | 0.916 | 0.936 | 0.659 | 0.645 | 0.694 | 0.658
15 | NCI-H2170 | 0.268 | 0.268 | 0.282 | 0.282 | 0.351 | 0.373 | 0.383 | 0.4 | 0.391 | 0.418 | 0.427 | 0.328 | 0.529 | 0.571 | 0.539 | 0.499 | 0.261 | 0.262 | 0.251 | 0.26
16 | NCI-H2228 | 1.19 | – | 1.18 | 1.04 | 0.955 | 0.943 | 0.955 | 0.859 | 0.308 | 0.236 | 0.284 | 0.326 | 0.654 | 0.671 | 0.468 | 0.735 | 0.354 | 0.308 | 0.361 | 0.319
